Data from PMC10056348, “Photocaged Histone Deacetylase Inhibitors as Prodrugs in Targeted Cancer Therapy” (Pharmaceuticals, 2023).
Where two headings read alike, the source gives them in different places.

How the values were obtained:
human recombinant HDAC1 = biological target: T1, human recombinant HDAC1 (Homo sapiens, UniProt Q13547); test: Fluorogenic HDAC enzyme inhibition assay (ZMAL substrate), HDAC1; assay type: biochemical
T1 construct: purchased BPS Bioscience Inc. 50051
Protocol: First, predilutions (100-fold final assay concentration) of test compounds or reference inhibitors were prepared. To this end, 3-fold serial dilutions of the respective DMSO stock solutions were prepared in DMSO using clear V-bottom 96-well microplates (Greiner Bio-One, Greiner AG, Kremsmünster, Austria). Predilutions designated for photolysis were irradiated for 10 min using the UV reactor described above. […] Next, 5.0 µL of these serial dilutions in assay buffer were transferred into 96-well microplates (OptiPlate-96 Black, PerkinElmer, Waltham, MA, USA). […] Fluorescence (excitation: 355 nm, emission: 460 nm) was measured using a FLUOstar OPTIMA microplate reader (BMG LABTECH GmbH, Ortenberg, Germany). IC50 values were determined by generating normalized dose–response curves using the built-in “log(inhibitor) vs. response (three parameters)” equation provided by GraphPad Prism (GraphPad Prism 9.0, San Diego, CA, USA). All compounds were tested in duplicates; reported mean IC50 values, including standard deviation, were calculated from at least two independent experiments.

[1] = test system: cellular HDAC activity in MV-3 cells; test: HDAC whole-cell assay; assay type: cell-based; settings: for IC50: read-out: IC50 whole-cell HDAC inhibition
Protocol: (§1) The amelanotic melanoma cell line MV-3 was obtained from EPO GmbH Berlin-Buch. The human ovarian carcinoma cell line A2780 was obtained from the European Collection of Cell Cultures (ECACC, Salisbury, UK). The cell lines were cultivated in RPMI 1640 medium supplemented with 10% fetal bovine serum and 50 U/mL penicillin and 50 µg/mL streptomycin and incubated at 37 °C under humidified air with 5% CO2 to 80–90% confluency before being used in further assays.
The HDAC whole-cell assay is based on the assay established by Ciossek et al. and Bonfils et al., with minor changes. Melanoma cells MV-3 were seeded in concentration of 15 × 10^3 cells/well (total volume of 81 µL) in 96-well cell-culture microplates (Catalog# 655086, Greiner Bio-One, Frickenhausen, Germany ) and cultured for 24 h. Aliquots of the DMSO stock solutions (10 mM) designated for photolysis were irradiated for 10 min with the UV reactor (see Section 4.3). The stock solutions processed with or without irradiation were used to perform a 4-fold serial dilution in PBS. Next, the cells were treated with 9 µL of the serial dilution for 18 h. For the analysis of the remaining HDAC activity, 10 µL of substrate solution, containing 3 mM Boc-Lys(ε-Ac)-AMC (Catalog# 233691-67-3, BLD pharmatech GmbH, Kaiserslautern, Germany) and 0.5% IGEPAL CA-630 (Catalog# J61055, Alfa Aesar, Thermo Fisher Scientific, Heysham, United Kingdom), was added and incubated for 3 h under cell culture conditions. The reaction was stopped with 100 µL of stop solution (50 mM Tris-HCl, 137 mM NaCl, 2.7 mM KCl, 1 mM MgCl2, 1% IGEPAL CA-630, 10 µM vorinostat, 2.0 mg/mL trypsin) and developed for 1.5 h under cell culture conditions. The fluorescence signal was measured using a Spark multimode microplate reader (Tecan Group AG, Männedorf, Swiss) at excitation wavelength of λ = 355 nm and emission wavelength of λ = 460 nm. Concentration-effect curves were generated using the four-parameter logistic equation (GraphPad Prism 9.0, San Diego, CA, USA), and mean IC50 values were determined by nonlinear regression based on at least three independent experiments in duplicates.

A2780 cell line = test: MTT cell viability assay, A2780; assay type: cell-based, human
Protocol: as §1
For this, 200-fold dilution series of the compounds of the respective stock solutions in DMSO (10 mM) were prepared in DMSO using clear U-bottom 96-well microplates (Greiner Bio-One, Greiner AG, Kremsmünster, Austria). Predilutions intended for photolysis experiments were irradiated for 10 min in the UV reactor described above. Thereafter, all predilutions were further diluted 1:200 in medium and provided in clear sterile F-bottom 96-well plates (Starlab GmbH, Hamburg, Germany). MV-3 cells were added at a density of 3000 cells/well and A2780 cells at a density of 8000 cells/well. The cells were added directly and without prior attachment. Final volume was 200 µL, and the final DMSO concentration was 0,5%. After 72 h, 40 µL MTT (3-(4,5-dimethylthiazol-2-yl)-2,5-diphenyltetrazolium bromide; BioChemica, Applichem GmbH, Darmstadt, Germany ) solution (5 mg/mL in phosphate-buffered saline) was added to determine cell survival. The formazan dye was dissolved in DMSO (Sigma-Aldrich, Steinheim, Germany) after 1 h, and absorbance was measured at 570 nm and 690 nm using a Multiskan microplate photometer (Thermo Fisher Scientific, Waltham, MA, USA). Concentration-effect curves were generated using the four-parameter logistic equation (GraphPad Prism 9.0, San Diego, CA, USA), and mean IC50 values were determined by nonlinear regression based on at least three distinct experiments in duplicates.

[2] = test system: caspase 3/7 in A2780 cells; test: Caspase-Glo 3/7 assay; assay type: cell-based, human; settings: A2780, 0.5 µM, 24 h
Protocol: A2780 cells (8000 cells/well) were seeded in white sterile 96-well plates (ThermoFisher Scientific, Waltham, MA, USA, #136102). Dilutions (500 µM) in DMSO were prepared from the respective stock solutions in DMSO (10 mM). Predilutions used for photolysis experiments were irradiated in clear U-bottom 96-well microplates (Greiner Bio-One, Greiner AG, Kremsmünster, Austria) for 10 min in the UV reactor described above. Vehicle control (DMSO) or compounds, at a concentration of 0.5 µM, were added to the cells. The cells were then incubated for 24 h under standard culture conditions. The final volume was 100 µL, and the final DMSO concentration was 0.1%. After 24 h, cells were subsequently incubated with Caspase-Glo 3/7 substrate (Promega, Madison, WI, USA, #G8091) for 1 h at 25 °C, according to the manufacturer´s protocol. Luminescence was detected at 25 °C using a Spark microplate reader (Tecan Group AG, Maennedorf, Swiss). Two independent experiments were performed in triplicates.
GraphPad Prism (GraphPad Software, San Diego, CA, USA) was used to perform statistical analysis. Normality of the data was assessed using Shapiro–Wilk’s and Kolmogorov–Smirnov tests. To determine statistical differences between means, a one-way analysis of variance (ANOVA) was performed. If the difference was significant (p < 0.05), the mean of each column was compared to the mean of the control and corrected for multiple comparisons using Dunnett’s post-hoc test. Differences were considered statistically significant at * p < 0.05, ** p < 0.01, *** p < 0.001.

T1 sequence (Q13547 whole entry): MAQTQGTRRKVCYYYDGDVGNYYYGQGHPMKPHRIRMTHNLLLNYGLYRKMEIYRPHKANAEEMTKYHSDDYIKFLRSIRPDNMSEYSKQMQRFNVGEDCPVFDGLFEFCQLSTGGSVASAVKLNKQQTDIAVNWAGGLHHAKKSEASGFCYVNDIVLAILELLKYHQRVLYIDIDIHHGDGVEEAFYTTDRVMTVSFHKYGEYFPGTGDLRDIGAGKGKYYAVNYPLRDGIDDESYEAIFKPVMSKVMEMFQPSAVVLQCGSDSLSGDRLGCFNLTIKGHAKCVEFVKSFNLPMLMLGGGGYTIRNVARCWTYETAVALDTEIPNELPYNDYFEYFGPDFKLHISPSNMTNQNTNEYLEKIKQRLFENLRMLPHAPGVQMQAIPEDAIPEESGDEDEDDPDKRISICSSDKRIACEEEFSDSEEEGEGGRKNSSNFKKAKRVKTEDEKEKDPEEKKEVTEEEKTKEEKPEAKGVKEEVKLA

`CN(C)c1ccc(C(=O)N(CC(=O)NCc2ccccc2)Cc2ccc(C(=O)NO)cc2)cc1` [I, N-[2-(benzylamino)-2-oxoethyl]-4-(dimethylamino)-N-[4-(hydroxycarbamoyl)-benzyl]-benzamide] was tested, and the IC50 (human recombinant HDAC1; without UV irradiation) was 12.7 ± 0.7 nM, the IC50 ([1]; 18 h, without UV irradiation) was 90.6 ± 5.74 nM and the IC50 ([1]; MV-3, light or radiation study, 18 h, without UV irradiation) was 91 nM. For the same molecule, the IC50 (A2780 cell line; Homo sapiens, A2780, light or radiation study, MTT, 72 h, without UV irradiation) was 249 ± 84.7 nM and the “activation of caspase 3/7” value ([2]; without UV) was “significant activation of caspase 3/7”.

For `COc1cc(CONC(=O)c2ccc(CN(CC(=O)NCc3ccccc3)C(=O)c3ccc(N(C)C)cc3)cc2)c([N+](=O)[O-])cc1OC` [pc-I, N-[2-(Benzylamino)-2-oxoethyl]-N-(4-{[(4,5-dimethoxy-2-nitrobenzyl)oxy]carbamoyl}benzyl)-4-(dimethylamino)benzamide], the IC50 (human recombinant HDAC1; after UV irradiation (365 nm, 10 min)) was 6.8 ± 1.2 nM, the “increase of HDAC1 inhibition upon irradiation with UV light” value (human recombinant HDAC1; irradiated vs non-irradiated) was 121 fold and the IC50 (human recombinant HDAC1; without UV irradiation) was 824 ± 32.2 nM. For the same molecule, the “IC50 whole-cell HDAC inhibition” value ([1]; 18 h, without UV irradiation) was “n.e. (no effect: <25% inhibition at 25 µM)”, the IC50 ([1]; light or radiation study, 18 h, after UV irradiation (365 nm, 10 min)) was 73 nM and the inhibition at 25 µM ([1]; light or radiation study, at 25 µM, without UV irradiation) was less than 25%. The IC50 (A2780 cell line; Homo sapiens, A2780, light or radiation study, MTT, 72 h, after UV irradiation (365 nm, 10 min)) was 428 ± 62.5 nM, the inhibition at 25 µM (A2780 cell line; Homo sapiens, A2780, light or radiation study, at 25 µM, without UV irradiation) was less than 25% and the “IC50 (A2780)” value (A2780 cell line; MTT, 72 h, without UV irradiation) was “n.e. ^b (n.e— no effect: <25% inhibition at 25 µM)”. The “activation of caspase 3/7” value ([2]; + UV (365 nm, 10 min)) was “significant activation of caspase 3/7” and the “activation of caspase 3/7” value ([2]; without UV) was “inactive”.
